Assay results: PubChem BioAssay AID720623 (The Scripps Research Institute Molecular Screening Center, 2013)
Active and inactive are the calls of the source. No rule for the calls is given here.

Test system: methionyl-tRNA synthetase (Trypanosoma brucei brucei)
Test: inhibition of trypanosomal MetRS charging activity – biochemical, radioactivity, assay provider, counter-screen for T. brucei MetRS inhibitor project, late-stage follow-up (AID 720623)
Conditions: Recombinant T. brucei MetRS enzyme, [3H]methionine tRNA aminoacylation, filter scintillation, 120 min, stronger effect = higher value

SMILES: Cc1[nH]c2ccc(Br)cc2c(=O)c1CN1CCCCCC1
- inhibition (at 10 µM): 86.6%
- inhibition (inhibition, at 1 µM): 19.4%

SMILES: O=C(NCc1nc2ccccc2[nH]1)C1=C[C@@H](c2ccc3c(c2)OCO3)C[C@@H](OCCCCO)O1
- inhibition (at 10 µM): 93.7%
- inhibition (inhibition, at 1 µM): 50.4%

SMILES: Clc1ccc(-c2nnc(SCc3nc4ccccc4[nH]3)o2)c(Cl)c1
- inhibition (at 10 µM): 97%
- inhibition (inhibition, at 1 µM): 75.3%

SMILES: CCO[C@@H]1OC(C(=O)NCc2nc3ccccc3[nH]2)=C[C@H](c2ccc(Br)cc2)[C@H]1CCCO
- inhibition (at 10 µM): 64%
- inhibition (inhibition, at 1 µM): 6.72%

SMILES: Oc1c(Cl)cc(Cl)cc1CNc1nc2ccccc2[nH]1
- inhibition (at 10 µM): 98.7%
- inhibition (inhibition, at 1 µM): 88.3%

SMILES: CN1CC(=O)N2C(c3cccc([N+](=O)[O-])c3)c3[nH]c4ccccc4c3C[C@H]2C1=O (stereo partly drawn)
- inhibition (at 10 µM): 96.7%
- inhibition (inhibition, at 1 µM): 57.7%

SMILES: O=C(NCCc1nc2ccccc2[nH]1)c1ccc(Cl)c([N+](=O)[O-])c1
- inhibition (at 10 µM): 99.6%
- inhibition (inhibition, at 1 µM): 89.8%

SMILES: O=C(NCc1nc2ccccc2[nH]1)C1=C[C@H](C2CC2)C[C@H](OCc2ccc(CO)cc2)O1
- inhibition (at 10 µM): 56.9%
- inhibition (inhibition, at 1 µM): -3.3%

SMILES: O=C(NCc1nc2ccccc2[nH]1)C1=C[C@@H](C2CC2)C[C@@H](OCc2ccc(CO)cc2)O1
- inhibition (at 10 µM): 93.6%
- inhibition (inhibition, at 1 µM): 52.8%

SMILES: O=C(NCc1nc2ccccc2[nH]1)C1=C[C@@H](c2ccc(Br)cc2)C[C@@H](OCc2ccc(CO)cc2)O1
- inhibition (at 10 µM): 97.6%
- inhibition (inhibition, at 1 µM): 62.1%

SMILES: Clc1ccc(OCCSCc2nc3ccccc3[nH]2)cc1
- inhibition (at 10 µM): 44.8% (inactive)
- inhibition (inhibition, at 1 µM): -2.58%

SMILES: CCCCCCCCCC1NC(C(=O)O)Cc2c1[nH]c1ccccc21 (stereo not drawn)
- inhibition (at 10 µM): 93.2%
- inhibition (inhibition, at 1 µM): 64.7%

SMILES: O=C(CCC(=O)Nc1cccc([N+](=O)[O-])c1)NN=Cc1cccs1
- inhibition (at 10 µM): 74.3%
- inhibition (inhibition, at 1 µM): 6.25%

SMILES: COc1ccc(OCC(O)CNC(=O)Nc2ccc(Cl)cc2)cc1 (stereo not drawn)
- inhibition (at 10 µM): 61.9%
- inhibition (inhibition, at 1 µM): 28.9%

SMILES: O=C(NCc1nc2ccccc2[nH]1)C1=C[C@H](c2ccccc2)C[C@H](OCc2ccc(CO)cc2)O1
- inhibition (at 10 µM): 61.8%
- inhibition (inhibition, at 1 µM): 7.32%

SMILES: CCO[C@H]1OC(C(=O)NCc2nc3ccccc3[nH]2)=C[C@@H](c2ccc(Br)cc2)[C@@H]1CCCO
- inhibition (at 10 µM): 81.6%
- inhibition (inhibition, at 1 µM): 0.88%

SMILES: COc1ccccc1NS(=O)(=O)c1cccc(NC(=O)Nc2ccccc2)c1
- inhibition (at 10 µM): 95.1%
- inhibition (inhibition, at 1 µM): 57%

SMILES: O=C(Cn1cnc2ccccc21)Nc1cccc([N+](=O)[O-])c1
- inhibition (at 10 µM): 91.9%
- inhibition (inhibition, at 1 µM): 44.9%

SMILES: CC(=O)c1c[nH]c(C(=O)NCc2cccc(C(F)(F)F)c2)c1
- inhibition (at 10 µM): 92.7%
- inhibition (inhibition, at 1 µM): 44.6%

SMILES: O=C(CC=NOCc1ccc([N+](=O)[O-])cc1)Nc1ccc(Br)cc1
- inhibition (at 10 µM): 84.7%
- inhibition (inhibition, at 1 µM): 32.2%

SMILES: O=C1[C@@H]2Cc3c([nH]c4ccccc34)C(c3cccc([N+](=O)[O-])c3)N2C(=O)CN1CCCO (stereo partly drawn)
- inhibition (at 10 µM): 97.5%
- inhibition (inhibition, at 1 µM): 63.2%

SMILES: O=C(CC(=O)Nc1cccc(Cl)c1)NN=Cc1ccccc1
- inhibition (at 10 µM): 81.1%
- inhibition (inhibition, at 1 µM): 28.2%

SMILES: O=C(Nc1ccc(F)c(Cl)c1)C1CC(=O)n2c(nc3ccccc32)N1 (stereo not drawn)
- inhibition (at 10 µM): 90.3%
- inhibition (inhibition, at 1 µM): 44.9%

SMILES: O=C(NCc1nc2ccccc2[nH]1)C1=C[C@H](c2csc3ccccc23)C[C@H](OCCCCO)O1
- inhibition (at 10 µM): 97.8%
- inhibition (inhibition, at 1 µM): 71.1%

SMILES: O=C(NCc1nc2ccccc2[nH]1)C1=C[C@H](c2ccc3c(c2)OCO3)C[C@H](OCCCCO)O1
- inhibition (at 10 µM): 79.4%
- inhibition (inhibition, at 1 µM): 5.68%

SMILES: O=C(NNC(=O)c1cc(-c2ccc(Cl)c(Cl)c2)nc2ccccc12)Nc1ccccc1
- inhibition (at 10 µM): 85.5%
- inhibition (inhibition, at 1 µM): 59.7%

SMILES: COc1ccccc1-n1c(SCC(=O)Nc2ccc(Cl)cc2)nc(O)c(Cc2ccccc2)c1=O
- inhibition (at 10 µM): 67%
- inhibition (inhibition, at 1 µM): 2.04%

SMILES: O=C(NNC(=O)c1ccc(-n2cncn2)c([N+](=O)[O-])c1)c1ccc(Cl)cc1
- inhibition (at 10 µM): 73%
- inhibition (inhibition, at 1 µM): 7.36%

SMILES: C[C@H](O)[C@@H]1C(=O)N2CCc3c([nH]c4ccccc34)[C@@H]2C[C@@H]1N(C)Cc1ccc2c(c1)OCO2
- inhibition (at 10 µM): 80.4%
- inhibition (inhibition, at 1 µM): 1.98%

SMILES: O=C(NCc1nc2ccccc2[nH]1)C1=C[C@@H](c2csc3ccccc23)C[C@@H](OCCCCO)O1
- inhibition (at 10 µM): 89.2%
- inhibition (inhibition, at 1 µM): 20.6%

SMILES: O=C(NCc1nc2ccccc2[nH]1)C1=C[C@H](c2ccc(Br)cc2)C[C@H](OCCCCO)O1
- inhibition (at 10 µM): 94.3%
- inhibition (inhibition, at 1 µM): 51.6%

SMILES: O=C(NCc1nc2ccccc2[nH]1)C1=C[C@@H](c2ccc(Br)cc2)C[C@@H](OCCCCO)O1
- inhibition (at 10 µM): 99.9%
- inhibition (inhibition, at 1 µM): 84.2%

SMILES: CC(C)(C)[C@H]1C=C(C(=O)NCc2nc3ccccc3[nH]2)O[C@@H](OCc2ccc(CO)cc2)C1
- inhibition (at 10 µM): 83.8%
- inhibition (inhibition, at 1 µM): 21.6%

SMILES: COc1ccc(CNC(=O)CSc2nnc3c(n2)[nH]c2ccc(F)cc23)cc1
- inhibition (at 10 µM): 89.6%
- inhibition (inhibition, at 1 µM): 47.5%

SMILES: COc1cccc(NC(=O)CSc2nnc3c(n2)[nH]c2ccc(C)cc23)c1
- inhibition (at 10 µM): 94.2%
- inhibition (inhibition, at 1 µM): 97.7%

SMILES: CCOC(=O)N1CCC(Nc2c(Nc3ccc(F)cc3)c(=O)c2=O)CC1
- inhibition (at 10 µM): 72.7%
- inhibition (inhibition, at 1 µM): 28.4%

SMILES: O=C(CC=NOCc1ccc([N+](=O)[O-])cc1)Nc1ccc(Cl)cc1
- inhibition (at 10 µM): 86.5%
- inhibition (inhibition, at 1 µM): 28.6%

SMILES: CC(C)(C)[C@@H]1C=C(C(=O)NCc2nc3ccccc3[nH]2)O[C@H](OCc2ccc(CO)cc2)C1
- inhibition (at 10 µM): 84.8%
- inhibition (inhibition, at 1 µM): 30.8%

SMILES: Cc1ccc(NC(=O)CN(C)C(=O)CCSc2ccc(F)cc2)cc1
- inhibition (at 10 µM): 67.3%
- inhibition (inhibition, at 1 µM): -1.05%

SMILES: CN(Cc1cc(Cl)cc(Cl)c1)[C@H]1C[C@H]2c3[nH]c4ccccc4c3CCN2C(=O)[C@H]1CO
- inhibition (at 10 µM): 101%
- inhibition (inhibition, at 1 µM): 95.1%

SMILES: O=C(N/C(=C\c1cccnc1)c1nc2ccccc2[nH]1)c1cccc(Br)c1
- inhibition (at 10 µM): 71.7%
- inhibition (inhibition, at 1 µM): 14.4%

SMILES: CC(C)OCCCN1CC(=O)N2C(c3cccc([N+](=O)[O-])c3)c3[nH]c4ccccc4c3C[C@H]2C1=O (stereo partly drawn)
- inhibition (at 10 µM): 93.1%
- inhibition (inhibition, at 1 µM): 50%

SMILES: O=C(Cn1cc(C(=O)C(=O)N2CCOCC2)c2ccccc21)Nc1cccc(C(F)(F)F)c1
- inhibition (at 10 µM): 100%
- inhibition (inhibition, at 1 µM): 87.5%

SMILES: CN(CC(=O)Nc1ccc(Cl)cc1)C(=O)c1ccc(-n2cncn2)c([N+](=O)[O-])c1
- inhibition (at 10 µM): 92.5%
- inhibition (inhibition, at 1 µM): 38%

SMILES: O=C(NCc1nc2ccccc2[nH]1)C1=C[C@H](c2ccc(Br)cc2)C[C@H](OCc2ccc(CO)cc2)O1
- inhibition (at 10 µM): 94.6%
- inhibition (inhibition, at 1 µM): 50.3%

SMILES: O=C1CC(SCc2nc3ccccc3[nH]2)C(=O)N1c1cccc(Cl)c1 (stereo not drawn)
- inhibition (at 10 µM): 52.6%
- inhibition (inhibition, at 1 µM): 19.7%

SMILES: O=C(CN1CCSC1=NCc1ccccc1)c1ccc(Cl)c(Cl)c1
- inhibition (at 10 µM): 28% (inactive)
- inhibition (inhibition, at 1 µM): -1.95%

SMILES: O=C(NCc1nc2ccccc2[nH]1)C1=C[C@@H](c2ccccc2)C[C@@H](OCc2ccc(CO)cc2)O1
- inhibition (at 10 µM): 94.3%
- inhibition (inhibition, at 1 µM): 44.6%

SMILES: CC(=O)c1ccc(N2CCN(C(=O)CCCn3c(=O)[nH]c4ccc(Br)cc4c3=O)CC2)cc1
- inhibition (at 10 µM): 97%
- inhibition (inhibition, at 1 µM): 68.1%

SMILES: COc1ccc2[nH]c3nc(SCC(=O)Nc4ccc5c(c4)OCO5)nnc3c2c1
- inhibition (at 10 µM): 65.6%
- inhibition (inhibition, at 1 µM): 63.4%

SMILES: O=C1CC(N(CCc2ccccc2)C(=S)Nc2ccccc2)C(=O)N1c1ccc(Br)cc1 (stereo not drawn)
- inhibition (at 10 µM): 97.3%
- inhibition (inhibition, at 1 µM): 84.2%

SMILES: CC(CC(=O)Nc1cccc(Br)c1)=NNC(=O)c1ccc(O)cc1O
- inhibition (at 10 µM): 90.5%
- inhibition (inhibition, at 1 µM): 36.5%

SMILES: O=C(C[C@H]1C(=O)N(Cc2ccccc2)C[C@@H]1c1ccc(Br)cc1)Nc1ccc(Br)cc1
- inhibition (at 10 µM): 94.4%
- inhibition (inhibition, at 1 µM): 55.7%

SMILES: Brc1cnc2nc(SCc3nc4ccccc4[nH]3)[nH]c2c1
- inhibition (at 10 µM): 84.9%
- inhibition (inhibition, at 1 µM): 23.7%
